Data published in patent US11470846B2, “Herbicidal pyridino-/pyrimidino-thiazoles” (SYNGENTA PARTICIPATIONS AG, priority 2014, dated 2022).

Columns and labels:
Assay type in all cases: in vivo
[1] = test system: Echinochloa crus-galli (ECHCG); assay: Post-emergence herbicidal activity; conditions: post-emergence application, 1000 g/Ha, evaluated after 13 days, scale 0-5; Table 7
Method: (§1) B2 Post-Emergence Herbicidal Activity
(§2) Seeds of a variety of test species were sown in standard soil in pots: Triticum aestivium (TRZAW), Oryza sativa (ORYSA), Avena fatua (AVEFA), Alopecurus myosuroides (ALOMY), Echinochloa crus-galli (ECHCG), Lolium perenne (LOLPE), Zea Mays (ZEAMX), Abutilon theophrasti (ABUTH), Amaranthus retroflexus (AMARE) and Setaria faberi (SETFA). After 8 days cultivation (post-emergence) under controlled conditions in a glasshouse (at 24/16° C., day/night; 14 hours light; 65% humidity), the plants were sprayed with an aqueous spray solution derived from the formulation of the technical active ingredient in acetone/water (50:50) solution containing 0.5% Tween 20 (polyoxyethelyene sorbitan monolaurate, CAS RN 9005-64-5). The test plants were then grown in a glasshouse under controlled conditions (at 24/16° C., day/night; 14 hours light; 65% humidity) and watered twice daily. After 13 days, the test was evaluated (5=total damage to plant; 0=no damage to plant).

Avena fatua (AVEFA) [2] = assay: Post-emergence herbicidal activity; conditions: post-emergence application, 1000 g/Ha, evaluated after 13 days, scale 0-5
Method: as §1, §2

[3] = test system: Triticum aestivium (TRZAW); assay: Post-emergence herbicidal activity; conditions: post-emergence application, 1000 g/Ha, evaluated after 13 days, scale 0-5
Method: as §1, §2

[4] = test system: Alopecurus myosuroides (ALOMY); assay: Post-emergence herbicidal activity; conditions: post-emergence application, 1000 g/Ha, evaluated after 13 days, scale 0-5
Method: as §1, §2

Lolium perenne (LOLPE) [5] = assay: Post-emergence herbicidal activity; conditions: post-emergence application, 1000 g/Ha, evaluated after 13 days, scale 0-5; Table 7
Method: as §1, §2

Oryza sativa (ORYSA) [6] = assay: Post-emergence herbicidal activity; conditions: post-emergence application, 1000 g/Ha, evaluated after 13 days, scale 0-5
Method: as §1, §2

[7] = test system: Echinochloa crus-galli (ECHCG); assay: Pre-emergence herbicidal activity; conditions: pre-emergence application, 1000 g/Ha, evaluated after 13 days, scale 0-5; Table 5
Method: (§3) B1 Pre-Emergence Herbicidal Activity
as §2, with “After” for “After 8 days”, “for one day (pre-emergence)” for “(post-emergence)”

Avena fatua (AVEFA) [8] = assay: Pre-emergence herbicidal activity; conditions: pre-emergence application, 1000 g/Ha, evaluated after 13 days, scale 0-5
Method: as §3
as §2, with “After” for “After 8 days”, “for one day (pre-emergence)” for “(post-emergence)”

[9] = test system: Triticum aestivium (TRZAW); assay: Pre-emergence herbicidal activity; conditions: pre-emergence application, 1000 g/Ha, evaluated after 13 days, scale 0-5
Method: as §3
as §2, with “After” for “After 8 days”, “for one day (pre-emergence)” for “(post-emergence)”

[10] = test system: Alopecurus myosuroides (ALOMY); assay: Pre-emergence herbicidal activity; conditions: pre-emergence application, 1000 g/Ha, evaluated after 13 days, scale 0-5
Method: as §3
as §2, with “After” for “After 8 days”, “for one day (pre-emergence)” for “(post-emergence)”

Lolium perenne (LOLPE) [11] = assay: Pre-emergence herbicidal activity; conditions: pre-emergence application, 1000 g/Ha, evaluated after 13 days, scale 0-5; Table 5
Method: as §3
as §2, with “After” for “After 8 days”, “for one day (pre-emergence)” for “(post-emergence)”

Oryza sativa (ORYSA) [12] = assay: Pre-emergence herbicidal activity; conditions: pre-emergence application, 1000 g/Ha, evaluated after 13 days, scale 0-5
Method: as §3
as §2, with “After” for “After 8 days”, “for one day (pre-emergence)” for “(post-emergence)”

SMILES | Control of weed species, ECHCG (damage score) [1] | Control of weed species, AVEFA (damage score) (Avena fatua (AVEFA) [2]) | Control of weed species, TRZAW (damage score) [3] | Control of weed species, ALOMY (damage score) [4] | Control of weed species, LOLPE (damage score) (Lolium perenne (LOLPE) [5]) | Control of weed species, ORYSA (damage score) (Oryza sativa (ORYSA) [6]) | Control of weed species, ECHCG (damage score) [7] | Control of weed species, AVEFA (damage score) (Avena fatua (AVEFA) [8]) | Control of weed species, TRZAW (damage score) [9] | Control of weed species, ALOMY (damage score) [10] | Control of weed species, LOLPE (damage score) (Lolium perenne (LOLPE) [11]) | Control of weed species, ORYSA (damage score) (Oryza sativa (ORYSA) [12])
Cc1nc(-c2cncnc2)sc1N(C)C(=O)OC(C)(C)C [Compound A2, tert-butyl N-methyl-N-(4-methyl-2-pyrimidin-5-yl-thiazol-5-yl)carbamate] | 5 | 5 | 1 | 1 | 3 | 1 | 5 | 3 | 0 | 0 | 2 | 1
Cc1nc(-c2cncc(N(C)C)c2)sc1N(C)C(=O)OC(C)(C)C [Compound A13] | 2 | 0 | 2 | 1 | 0 | 1 | 1 | 0 | 0 | 0 | 0 | 1
Cc1nc(-c2cccnc2)sc1N(C)C(=O)SC(C)(C)C [Compound A22, S-tert-butyl N-methyl-N-[4-methyl-2-(3-pyridyl)thiazol-5-yl]carbamothioate] | 2 | 2 | 0 | 0 | 2 | 0 | 0 | 0 | 0 | 0 | 0 | 0
CN(C(=O)OC(C)(C)C)c1sc(-c2cncnc2)nc1C(F)(F)F [Compound A26] | 5 | 5 | 1 | 0 | 4 | 2 | 4 | 4 | 0 | 2 | 3 | 1
Cc1nc(-c2cncc(OCc3ccccc3)c2)sc1N(C)C(=O)OC(C)(C)C [Compound A14] | 1 | 0 | 0 | 0 | 0 | 0 | 0 | 0 | 1 | 0 | 1 | 0
COc1cncc(-c2nc(C(F)(F)F)c(N(C)C(=O)OC(C)(C)C)s2)c1 [Compound A28, tert-butyl N-[2-(5-methoxy-3-pyridyl)-4-(trifluoromethyl)thiazol-5-yl]-N-methyl-carbamate] | 4 | 2 | 1 | 1 | 3 | 1 | 3 | 1 | 0 | 0 | 2 | 0
COc1cncc(-c2nc(C)c(N(C)C(=O)OC(C)(C)C)s2)c1 [Compound A6] | 4 | 2 | 1 | 1 | 2 | 0 | 2 | 0 | 0 | 1 | 1 | 1
CN(C(=O)OC(C)(C)C)c1sc(-c2cncc(F)c2)nc1C(F)(F)F [Compound A24] | 5 | 4 | 1 | 0 | 4 | 2 | 4 | 4 | 1 | 2 | 3 | 0
Cc1nc(-c2cncc(O)c2)sc1N(C)C(=O)OC(C)(C)C [Compound A15] | 1 | 2 | 1 | 0 | 1 | 0 | 0 | 0 | 0 | 0 | 0 | 0
